# Results taken from patent publication US20230321179A1, “N-ACYL AMINO ACID PRODUCTS AND USES” (THE REGENTS OF THE UNIVERSITY OF MICHIGAN, priority 2020, published 2023).
# Experiments:
# HepG2 cells [1] = assay: Seahorse oxygen consumption rate and dependency on FAO; format: cell-based; conditions: 10 µM acute stimulation, increase attenuated by etomoxir 6 µM
# Description: HepG2 cells were obtained from the American Type Culture Collection (ATCC) and cultured at 37° C. and 5% CO2 in Dulbecco’s Modified Eagle Medium (DMEM, Gibco) supplemented with 10% fetal bovine serum (FBS, Sigma-Aldrich) and 1% Penicillin-Streptomycin (Pen-Strep, Gibco). Oxygen consumption rate (OCR) and dependency on FAO were assessed using a Seahorse XFe96 Analyzer (Agilent). HepG2 cells were seeded at 2.5x10^4 cells/well in XF96 cell culture microplates (Agilent). The next day, XFe96 sensor cartridges were hydrated in accordance with the manufacturer’s instructions. Cells were treated (port 1) with N-acyl amino acids (10 µM) or vehicle (EtOH), Etomoxir (Agilent, 6 µM, port 2) and finally with rotenone+antimycin A (R/A, Agilent, port 3).
# HepG2 cells [2] = assay: TG biosynthesis and hydrolysis by [3H]-acetate incorporation; format: cell-based; conditions: 10 µM; for rate of TG biosynthesis: 3 h [3H]-acetate; for rate of TG hydrolysis: additional 3 h after [3H]-acetate withdrawal
# Description: For the TG biosynthesis and hydrolysis assays, HepG2 cells were seeded in 12-well plates. At 60-70% confluence, cells were treated with N-acyl amino acids (10 µM) or vehicle (EtOH) in serum-free medium supplemented with 0.1% BSA and stimulated for 3 h at 37° C. with [3H]-acetate (3.3 µCi/ml, ART 0202, American Radiolabeled Chemicals) to assess the rate TG biosynthesis. In some wells, the cells were washed twice with PBS ([3H]-acetate withdrawal) and incubated for additional 3 h with N-acyl amino acids (10 µM) or vehicle (EtOH) in serum-free medium supplemented with 0.1% BSA to assess the rate TG hydrolysis. At the end of the above incubation periods, cells were washed with twice with PBS. Cellular lipids were extracted using hexane (≥99%, Sigma-Aldrich 32293) and isopropanol (≥99.5%, Fisher Scientific A426-4) at a 3:2 ratio (v:v), and the hexane phase was left to evaporate for 48 h. Next, lipids were separated by thin layer chromatography (TLC) on silica gel plates (60 F254, M1057150001, Fisher Scientific) and developed in hexane / ether (≥99.9%, 309966, Sigma-Alrich) / acetic acid (≥99.7%, A38-212, Fisher Scientific) at a 130:30:1.5 ratio (v:v:v). TG spots were visualized by iodine vapor (using an appropriate standard for identification) and [3H]-labels were counted by a Tri-Carb 2810TR liquid scintillation analyzer (PerkinElmer). Data were normalized to protein levels and presented as count per minutes (CPM)/mg cell protein.
# PPARα = target: T1, PPARα (Homo sapiens, UniProt Q07869); assay: PPREx3-TK-luciferase PPARα reporter assay in COS-1 cells; format: cell-based; conditions: 24 h
# T1 construct: expressed in transfected cells; host or cells: COS-1
# T1 sequence (Q07869 1-468): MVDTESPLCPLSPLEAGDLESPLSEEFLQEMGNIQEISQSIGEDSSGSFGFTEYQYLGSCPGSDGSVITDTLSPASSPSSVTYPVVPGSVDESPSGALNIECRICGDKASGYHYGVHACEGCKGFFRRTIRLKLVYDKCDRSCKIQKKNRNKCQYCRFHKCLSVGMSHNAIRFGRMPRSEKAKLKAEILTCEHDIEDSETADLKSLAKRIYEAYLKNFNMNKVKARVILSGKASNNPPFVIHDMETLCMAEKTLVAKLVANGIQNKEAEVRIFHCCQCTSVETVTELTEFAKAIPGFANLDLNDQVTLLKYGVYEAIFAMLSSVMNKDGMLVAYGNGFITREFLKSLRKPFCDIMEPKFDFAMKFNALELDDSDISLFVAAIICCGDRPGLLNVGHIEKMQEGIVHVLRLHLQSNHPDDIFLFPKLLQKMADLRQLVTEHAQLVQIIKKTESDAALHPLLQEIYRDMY
# Description: COS-1 and HepG2 cells were obtained from the American Type Culture Collection (ATCC) and cultured at 37° C. and 5% CO2 in Dulbecco’s Modified Eagle Medium (DMEM, Gibco) supplemented with 10% fetal bovine serum (FBS, Sigma-Aldrich) and 1% Penicillin-Streptomycin (Pen-Strep, Gibco). For luciferase assays, COS-1 cells were seeded in 96-well plates. At 60-70% confluence, transfection was performed using Lipofectamine 3000 (Invitrogen) with PPREx3-TK-luciferase, PPARα and Renilla constructs at 80 ng, 10 ng and 10 ng, respectively. 24 h post-transfection, cells were serum-starved and treated with 10 µM of the PPARα activator WY-14643 (Cayman Chemicals, 70730), 1 mM of glycine or tripepetide glycine-glycine-leucine or 10 µM of N-acyl amino acids for 24 h (Cayman Chemicals, C20:4-Gly 90051, C18:1-Leu 20064). Luciferase activity was assessed using the Dual-Luciferase Reporter Assay System (Promega) and normalized by Renilla.
# [3] = test system: C57BL/6J mice fed NASH diet; assay: Treatment of NASH in mice with I.P. N-oleoyl leucine; format: in vivo; conditions: 10 mg/kg/d I.P.
# Description: C57BL/6J mice were fed a standard diet (SD) or non-alcoholic steatohepatitis (NASH) diet for 16 weeks. After NASH confirmation, mice were randomized to receive 10 mg/kg/d (I.P.) N-oleoyl leucine (C18:1-Leu) or equivalent amounts of oleic acid (C18:1) or vehicle (EtOH) for an additional 6 weeks on the NASH diet. Control mice were fed the SD and administered vehicle.
# [4] = test system: Apolipoprotein E-deficient (Apoe-/-) mice; assay: Treatment of atherosclerosis in Western diet-fed mice with I.P. N-oleoyl leucine; format: in vivo; conditions: 7.5 mg/kg/d I.P., 4 weeks
# Description: Apolipoprotein E-deficient (Apoe-′-) mice were fed a Western diet (WD) for 8 weeks. Mice were randomized to receive 7.5 mg/kg/d (I.P.) N-oleoyl leucine (C18:1-Leu) or equivalent amounts of oleic acid (C18:1) for an additional 4 weeks on the WD (n=10).
# [5] = test system: C57BL/6J mice fed NASH diet; assay: NASH diet mouse model, oral treatment with tripeptide glycine-glycine-leucine, glycine or leucine; format: in vivo
# Description: To explore the therapeutic potential of […] against NASH, an experimental approach to model advanced NAFLD was used. As described, C57BL/6J mice were fed a high-fat, high-fructose and high-cholesterol diet (NASH diet) for 12 weeks. After confirming NASH, the mice were randomized to receive orally […] at 0.125 or 0.5 mg/g/day, equivalent amounts of leucine, glycine or H2O for 12 additional weeks on NASH diet. Mice fed low-fat control diet (CD) and administered H2O served as control. Animal procedures were approved (PRO00008239) by the Institutional Animal Care & Use Committee of the University of Michigan (U-M) and performed in accordance with the institutional guidelines. Seven weeks-old male C57BL/were from Jackson Laboratories. After one week of acclimation, mice were fed ad libitum either low-fat control diet (CD, Research Diets D17072805, 10% fat) or high-fat, high-fructose and high-cholesterol diet (NASH diet, Research Diets D17010103). After confirming NASH, the mice were randomized to receive orally […] (Beijing SL Pharmaceutical) at 0.125 or 0.5 mg/g/day, equivalent amounts of leucine (0.17 mg/g/day, Sigma-AldrichL8912), glycine (0.33 mg/g/day, Sigma-Aldrich G5417) or H2O for 12 additional weeks on NASH diet. All histological procedures were performed by the In Vivo Animal Core (IVAC) Histology Laboratory at the U-M. Technicians were blinded to experimental groups. Formalin-fixed tissues were processed through graded alcohols and cleared with xylene followed by infiltration with molten paraffin using an automated VIP5 or VIP6 tissue processor (TissueTek, Sakura-Americas). Using a Histostar Embedding Station (ThermoFisher Scientific), tissues were then sectioned on a […] rotary microtome (ThermoFisher Scientific) at 4 μm thickness and mounted on glass slides. Slides were stained for hematoxylin and eosin (H&E, ThermoFisher Scientific). For Sirius Red staining, slides were treated with 0.2 phosphomolybdic acid for 3 min and transferred to 0.1% Sirius Red saturated in picric acid (Rowley Biochemical Inc.) for 90 min, then transferred to 0.01N hydrochloric acid for 3 min. Frozen section processing was used for Oil Red O staining. Formalin-fixed liver samples were cryoprotected in 20% sucrose at 4° C. overnight, blotted, then liquid nitrogen-snap frozen in OCT compound (Tissue-Tek, Cat #4583) and stored at -80° C. until ready for cryosectioning. Prior to sectioning, frozen blocks were brought up to about -20° C., then sectioned at 5 μm on a Cryotome SME (Thermo-Shandon, Cat# 77200227). Slides were stored at -80° C. until stained. Prior to staining, liver slides were thawed to room temperature for 30 min. Slides were post-fixed in 10% Neutral Buffered Formalin for 20 min, rinsed in DDW, followed by rinsing in 60% isopropanol before being placed in working Oil Red O-isopropanol stain (Rowley Biochemical Inc., H-503-1B) for 5 min. Slides were then rinsed in 60% isopropanol followed by three changes of DDW. Then, slides were nuclear counterstained in Harris Hematoxylin and mounted in Aqua-Mount (Lerner Laboratories, Cat# 13800) aqueous mounting media. Immunohistochemical staining was performed on a […] automated immunohistochemical stainer (Biocare Medical) with blocking for endogenous peroxidases and non-specific binding, followed by detection using a horseradish peroxidase biotin-free polymer based commercial detection system, disclosure with diaminobenzidine chromogen, and nuclear counterstaining with hematoxylin. Specific to F4/80, (Bio-Rad ABD Serotec, Cat# MCA497), the rat monoclonal primary antibody (clone CI:A3-1) was diluted to 1:400 in DaVinci Diluent (Biocare Medical, Cat# PD900) and incubated for 60 min followed by detection using Rat-on-Mouse HRP-Polymer, (Biocare Medical, Cat# RT517) 2-step probe-polymer incubation for 10 and 30 min respectively. H&E staining was used to score NAFLD activity score (NAS). Steatosis was scored from 0-3 (0: <5% steatosis; 1: 5-33%; 2: 34-66%; 3: >67%). […]
# [6] = NASH diet, oral treatment 12 weeks
# [7] = NASH diet, oral treatment 12 weeks, endpoint
smiles,measurement,setting,value
CCCCC/C=C\C/C=C\C/C=C\C/C=C\CCCC(=O)NCC(=O)O [N-arachidonoyl glycine],oxygen consumption rate (OCR),HepG2 cells [1],significantly increased
same,rate of TG biosynthesis,HepG2 cells [2],attenuated
same,rate of TG hydrolysis,HepG2 cells [2],significantly accelerated
same,"luciferase activity (PPARα activation), normalized by Renilla",PPARα; 10 µM,significantly increased
CCCCCCCC/C=C\CCCCCCCC(=O)NCC(=O)O [N-oleoyl glycine],"luciferase activity (PPARα activation), normalized by Renilla",PPARα; 10 µM,significantly increased
CCCCCCCC/C=C\CCCCCCCC(=O)N[C@@H](CC(C)C)C(=O)O [N-oleoyl leucine],oxygen consumption rate (OCR),HepG2 cells [1],significantly increased
same,body weight,"[3]; 6 weeks, NASH diet",lowers
same,hepatomegaly,"[3]; 6 weeks, liver weight to body weight ratio",significantly lowers
same,circulating liver enzymes,"[3]; 6 weeks, ALT, AST, ALP at endpoint",lowers
same,NASH diet-induced hepatic and systemic inflammation,"[3]; 6 weeks, F4/80, plasma CCL2, CCL5",significantly lowers
same,diet-induced NASH,"[3]; 6 weeks, H&E scoring, NAS",significantly lowers
same,hepatic steatosis,"[3]; 6 weeks, Oil red O histology",significantly lowers
same,NASH diet-induced hepatic fibrosis,"[3]; 6 weeks, Sirius red fibrosis score",significantly lowers
same,systemic energy balance in NASH,"[3]; CLAMS: RER, energy expenditure, food intake, total activity",no significant effect
same,adiposity,"[3]; NASH diet, NMR body composition",without affecting
same,rate of TG biosynthesis,HepG2 cells [2],attenuated
same,rate of TG hydrolysis,HepG2 cells [2],only N-arachidonoyl glycine (C20:4-Gly) significantly accelerated
same,body weight,"[4]; Western diet, vs oleic acid",no significant effects
same,plasma cholesterol,"[4]; Western diet, vs oleic acid",no significant effects
same,atherosclerotic plaque area,"[4]; aortic sinus H&E, vs oleic acid",significantly lowers
same,lesional macrophages,"[4]; aortic sinus Mac-2, vs oleic acid",significantly lowers
same,"luciferase activity (PPARα activation), normalized by Renilla",PPARα; 10 µM,significantly increased
"Cc1cccc(Nc2cc(Cl)nc(SCC(=O)O)n2)c1C [WY-14643, reference compound]","luciferase activity (PPARα activation), normalized by Renilla",PPARα; 10 µM,significantly increased
NCC(=O)O [glycine],"decrease of hepatic levels of N-oleoyl glycine, N-arachidonoyl glycine and N-oleoyl leucine in NASH","[5]; LC-MS/MS of liver, chronic treatment",rescued
same,NASH diet-induced hepatomegaly,[5]; [6],significantly reduced
same,hepatic fibrosis (Sirius Red staining),[5]; [6],lower
same,hepatic inflammation (F4/80 macrophage staining),[5]; [6],lower
same,hepatic steatosis (histological analyses),[5]; [6],lower
same,increase in plasma levels of alanine aminotransferase (ALT),[5]; [7],attenuated
same,increase in plasma levels of aspartate aminotransferase (AST),[5]; [7],attenuated
same,suppression of hepatic expression of PPARα and its target genes in NASH,"[5]; RNA-sequencing, liver",reversed
same,"luciferase activity (PPARα activation), normalized by Renilla",PPARα; concentrations of up to 1 mM,neither glycine or tripepetide glycine-glycine-leucine showed a significant effect
